The text below walks through data of PubChem BioAssay AID463229 (Broad Institute, 2010).

In this test the test system is INS-1E rat beta cells, no cytokines, CellTiter-Glo ATP, 48 h. Put plainly: ATP level change in INS-1E without cytokines, dose response, counter-screen for beta-cell apoptosis protection project, INS-1E rat cells, ATP luminescence, cherry pick (AID 463229).
For the compound `Cc1cccc(N2C(=S)N=C(Nc3c(C)cccc3C)C23CCOC(C)(C)C3)c1` (stereo not given), the half-maximal activity concentration (AC50) was 3.79 µM. Turning to `CCN(CC)c1ccc(/C=N/NC(=O)c2ccco2)c(O)c1`, the AC50 was 2.11 µM. For `C=CC(C)(C)c1c(O)c(CC=C(C)C)c(O)c2c(=O)c3ccc(O)c(O)c3oc12`, the concentration at half-maximal activity (AC50) was 5.39 µM. With `CC(NCC(O)COCCC12CC3CC(CC(C3)C1)C2)c1ccccc1` (stereo not given) the figure was 8.29 µM; with `Cc1cc(N2CCC(C)CC2)nc(NCc2ccccc2)n1`, 12.3 µM; with `CN(C)CCNC(=O)/C(=C/c1ccc(-c2ccc(Cl)cc2Cl)o1)NC(=O)c1ccccc1`, 9.44 µM. With `COc1ccc(-c2c([C@H]3[C@H]4C=CC[C@@H](C)[C@@H]4C(=O)N3Cc3ccccc3)ccc3ccccc23)cc1` the figure was 7.67 µM; with `Nc1c(C(=O)Nc2ccc3c(c2)OCCO3)nnn1Cc1ccccc1Cl`, 5.53 µM. For the compound `COc1ccc(Sc2nc(-c3ccccn3)ncc2OC)cc1`, the concentration at half-maximal activity (AC50) was 19.3 µM.

Regarding `CCOC(=O)c1ccc(NC(=O)c2cccnc2)cc1`, the AC50 was 6.64 µM.

Consider `CCOc1ccc(-n2c(-c3ccccc3)c[n+]3c2CCCCC3)cc1`, for which the AC50 is 0.85 µM. With `Cc1ccc(C)c(NC(=O)/C(C#N)=C/c2cn(CC(=O)NCc3ccco3)c3ccccc23)c1`, the AC50 is 5.47 µM.

Consider `O=C(N/N=C(\c1ccccc1)c1ccccn1)c1cccc([N+](=O)[O-])c1`, for which the concentration at half-maximal activity (AC50) was 2.11 µM.

On to `COc1ccc(NS(=O)(=O)c2cccc(NC(=O)c3ccc(S(=O)(=O)N4CCCCCC4)cc3)c2)cc1`, for which the AC50 was 4.24 µM.

Take `CC1CCN(Cc2c(C(=O)N/N=C/c3ccccc3O)nnn2-c2nonc2N)CC1`: the half-maximal activity concentration (AC50) was 5.67 µM.

Consider `Cc1cc(S(=O)(=O)NCc2ccncc2)c(C)cc1Br`, for which the half-maximal activity concentration (AC50) was 6.19 µM. Regarding `CCOc1ccc(OCc2ccc(C(=O)N/N=C(\C)c3ccccn3)cc2)cc1`, the AC50 was 5.09 µM. Consider `CC(=O)c1c(C)[nH]c(C(=O)OCCCCN2C(=O)c3ccccc3C2=O)c1C`, for which the AC50 was 6.54 µM. With `COc1ccc(/C=C/c2cc(-c3ccc(C)cc3)o[n+]2C)cc1` the figure was 0.91 µM. As for `CC(C)CN(C(=O)COC(=O)C12CC3CC(CC(C3)C1)C2)c1c(N)n(Cc2ccccc2)c(=O)[nH]c1=O`, the half-maximal activity concentration (AC50) was 3.89 µM. In the case of `C=CCn1nc([N+](=O)[O-])nc1Sc1cccc2cccnc12`, the half-maximal activity concentration (AC50) is 6.79 µM.

As for `COc1ccc(/C=N/Nc2cc(C)nc(-n3nc(C)cc3C)n2)c(OC)c1`, the AC50 was 18.4 µM. In the case of `COc1ccc(/C(C)=N/Nc2nc(C)cc(-c3ccccc3)n2)cc1`, the AC50 was 9.59 µM. With `O=C1/C(=C/c2cccnc2)CCC/C1=C\c1cccnc1`, the half-maximal activity concentration (AC50) is 6.89 µM. Turning to `COc1ccc(O)c(/C=N/NC(=O)c2ccc(OCc3cccc(Br)c3)cc2)c1`, the AC50 is 19.8 µM. For `CCOc1ccc(-c2csc(/C(C#N)=C\c3ccc(O)c([N+](=O)[O-])c3)n2)cc1`, the AC50 is 4.57 µM. Take `O=C(NC(=S)NNC(=O)c1cnccn1)c1ccc(F)cc1`: the AC50 was 3.48 µM. For the compound `CN(C)C(=O)c1ccc(NC(=O)c2cccnc2)cc1`, the half-maximal activity concentration (AC50) was 7.27 µM. Regarding `COC(=O)c1ccc2c(c1)C(C)(C)C(/C=C/c1ccc(OC)c(OC)c1OC)=[N+]2C`, the concentration at half-maximal activity (AC50) was 2.16 µM. For the compound `Oc1ccc(-[n+]2c(-c3ccccc3)cc(-c3ccccc3)cc2-c2ccccc2)cc1`, the AC50 is 3.96 µM.

Turning to `C/C(=N/Nc1nc(-c2ccccc2)cc(-c2ccc(F)cc2)n1)c1cccc(N)c1`, the AC50 was 15.1 µM. With `Nc1nc(N)c2cc(Sc3ccc4ccccc4c3)ccc2n1`, the AC50 is 2.09 µM.

As to `C=C(C)C(=O)N1CC2(CC(c3cccc(NC(=O)COc4ccc(Cl)cc4)c3)=NO2)C[C@@H]1C(N)=O` (stereo not given in full), the concentration at half-maximal activity (AC50) was 12.8 µM. Regarding `CCCCCCCCCCCCn1ccc(=N)cc1`, the AC50 is 0.515 µM.

Regarding `COc1ccc(Nc2ccc3c(c2)=NC2(CCCCC2)[N+]=3[O-])cc1`, the AC50 was 7.8 µM. With `CCOc1cccc(/C=N/NC(=O)c2cc(C3CC3)[nH]n2)c1O`, the AC50 was 7.83 µM. In the case of `Cc1ccc(-n2c(-c3ccccc3)c[n+]3c2CCc2ccccc2-3)c(C)c1`, the AC50 was 1.91 µM. In the case of `O=C(Nc1cccc(C(F)(F)F)c1)Oc1ccc(Cl)c2cccnc12`, the half-maximal activity concentration (AC50) was 7.64 µM. `COc1cc([N+](=O)[O-])cc(/C=N/NC(=O)c2cc(-c3ccccc3)nc3ccccc23)c1O`: the AC50 was 9.5 µM.

For `CCn1nc(C)c(CNC(=O)c2ccc(OC3CCN(Cc4ccccn4)CC3)cc2)c1C`, the AC50 is 6.9 µM. In the case of `Cc1ccc(C(=O)N/C(=C\c2ccc(-c3ccc(Br)cc3)o2)C(=O)NCCCN(C)C)cc1`, the half-maximal activity concentration (AC50) was 7.87 µM. With `CCN(CC)CCC(=O)Nc1cccc2c1C(=O)c1ccccc1C2=O` the figure was 12 µM. The same measure for `Cc1[nH]n(C2=NCCS2)c(=O)c1N=Nc1cccc(C(F)(F)F)c1`: 7.05 µM.

As for `COc1cccc2sc(Nc3nc(-c4ccccn4)cs3)nc12`, the AC50 was 3.75 µM. With `COc1cc(-c2nc3ccc(C)cn3c2NCc2ccccc2)ccc1-c1cccc(Cl)c1`, the AC50 is 4.66 µM.

Take `O=C(Nc1cc(Sc2ccccn2)cc([N+](=O)[O-])c1)c1ccc(Cl)cc1`: the half-maximal activity concentration (AC50) is 8.9 µM. With `COc1cc(/C=C(/C(=O)c2cccs2)c2nc3ccccc3[nH]2)ccc1O` the figure was 12.9 µM. `OC(CNCCC1C=Nc2ccccc21)Cn1c2ccc(Cl)cc2c2cc(Cl)ccc21` (stereo not given): the AC50 was 7.93 µM. With `O=S(=O)(c1ccc2c(c1)OCCO2)N1CCN(c2ncnc3sccc23)CC1` the figure was 4.9 µM. For `COc1ccccc1N1C(C)=CC(=C(C#N)c2nc3ccccc3s2)C=C1C`, the AC50 is 8.66 µM. For `C/C(=N/NC(=O)CN(c1ccccc1)S(=O)(=O)c1ccccc1)c1ccccc1O`, the AC50 was 10.2 µM. With `COc1cccc(/C=N/NC(=O)c2cc3cc([N+](=O)[O-])ccc3s2)c1O` the figure was 7.08 µM; with `CNC[C@@H](CC1CCCCC1)NC[C@H](CC(C)C)NCCc1cccc(C(F)(F)F)c1`, 4.4 µM. In the case of `O=C1C=C(Nc2ccccc2O)c2ccccc2C1=O`, the AC50 was 8.04 µM. Regarding `CCCCC(CC)CN=C(N)NC(N)=NCCCCCCN=C(N)NC(N)=NCC(CC)CCCC` (stereo not given), the AC50 is 2.35 µM. With `Cc1ccc2nc(-c3ccc(NC(=O)c4cccnc4)cc3)oc2c1` the figure was 7.8 µM; with `O=C(N/N=C/c1ccccc1O)c1ccc2c(c1)OCO2`, 7.41 µM; with `Oc1ccc(-c2n[nH]c(C(F)(F)F)c2-c2ccccc2)c(O)c1`, 5.86 µM. For `CCC(O)C1CCN(C(=O)c2cc(COc3ccc4ncccc4c3)on2)CC1` (stereo not given), the AC50 is 5.52 µM. With `OC(c1cc(-c2ccc(C(F)(F)F)cc2)nc(C(F)(F)F)c1)C1CCCCN1` (stereo not given) the figure was 6.81 µM; with `COc1ccc(Br)cc1CN1CCN(Cc2c[nH]c3ccccc23)CC1`, 7.35 µM. Consider `CCN1/C(=C/C(C)=C/c2sc3ccccc3[n+]2CC)Sc2ccccc21`, for which the AC50 is below 0.195 µM. With `O=C(NCc1ccccc1)C1=C[C@@H](c2csc3ccccc23)C[C@@H](OCc2ccc(CO)cc2)O1`, the AC50 was 5.16 µM. With `O=C(NCc1cccnc1)c1ccc(NC(=O)c2ccc([N+](=O)[O-])cc2)cc1`, the concentration at half-maximal activity (AC50) is 0.215 µM. In the case of `Oc1ccc(Br)cc1CNc1cccc2cccnc12`, the AC50 was 12.8 µM. For `COc1ccc(/C(C)=N/NC(=O)c2cccc(S(=O)(=O)N3CCCC3)c2)c(O)c1`, the AC50 is 3.8 µM. On to `Cc1ccc(S(=O)(=O)Nc2ccccc2N(C)S(=O)(=O)c2ccc(C)cc2)cc1`, for which the half-maximal activity concentration (AC50) is 15.6 µM. On to `CC(NC(=O)c1cc(COc2ccc3ncccc3c2)on1)c1ccc(F)cc1` (stereo not given), for which the AC50 was 5.86 µM.

As for `O=C(Nc1ccc(Cl)c(Cl)c1)Nc1nnc(CC2=CCCCC2)s1`, the AC50 is 5.75 µM. The same measure for `O=c1[nH]c(=O)n(-c2ccc(F)cc2)c2c1C(C(F)(F)F)(C(F)(F)F)N=C(c1ccc(F)cc1)N2`: 6.05 µM; for `O=C(N/N=C/c1cc(Br)ccc1O)C(=O)Nc1ccccc1OC(F)(F)C(F)F`: 6.77 µM; for `O=C(Nc1nc(-c2ccccn2)cs1)c1ccccc1-n1cnnn1`: 5.32 µM. Regarding `Cc1ccc(-n2c(-c3ccc(Br)cc3)c[n+]3c2CCc2ccc4cccnc4c2-3)cc1`, the concentration at half-maximal activity (AC50) is 0.482 µM.

As for `CC1=NN(c2nc(-c3ccc(C)cc3)cs2)C(=O)C1N=Nc1ccc(C(N)=O)cc1` (stereo not given), the half-maximal activity concentration (AC50) is 3.53 µM.

In the case of `CN1c2ccccc2N(C)C1(C)c1ccccc1`, the AC50 is 0.604 µM. Consider `C/C(=N\N1C(=O)c2ccccc2NC1c1ccccc1)c1ccccc1O` (stereo not given), for which the AC50 was 19.1 µM. With `COc1cccc(/C=N/NC(=O)C(=O)Nc2ccccc2OC(F)(F)C(F)F)c1O` the figure was 6.44 µM. With `CCCN(CCC)c1nc(-c2ccccn2)nc2ccccc12`, the AC50 was 4.34 µM. As for `CCCCCN=Cc1c(C)[nH]n(-c2nc3ccccc3s2)c1=O`, the concentration at half-maximal activity (AC50) was 3.2 µM. Consider `CC(=O)N1c2ccc(S(=O)(=O)N3CCC(C(=O)N4CCN(c5cccc(C(F)(F)F)c5)CC4)CC3)cc2CC1C` (stereo not given), for which the concentration at half-maximal activity (AC50) is 5.82 µM.

Take `Cc1cc(N/N=C/c2cccc(Cl)c2)nc(-n2nc(C)cc2C)n1`: the concentration at half-maximal activity (AC50) was 16.4 µM. On to `Cc1ccc(C[n+]2cccc(-c3ccccc3)c2)c(C)c1`, for which the half-maximal activity concentration (AC50) is 5.1 µM.

For `COc1ccccc1/C=C/CN1CCC(n2nccc2NC(=O)CCc2ccccc2)CC1`, the half-maximal activity concentration (AC50) is 8.85 µM.

For the compound `CCOc1cc(S(=O)(=O)NCc2ccncc2)ccc1Cl`, the AC50 was 1.19 µM. On to `c1ccc(CNc2nc(-c3ccccn3)nc3ccccc23)cc1`, for which the AC50 is 7.68 µM. In the case of `CC(C)Nc1ccc(Nc2ccccc2)cc1`, the half-maximal activity concentration (AC50) was 7.5 µM. Regarding `CC(Nc1ncnc2ccccc12)c1ccccc1` (stereo not given), the AC50 is 3.58 µM. As to `O=C(c1cc(COc2cccc(C(F)(F)F)c2)on1)N1CCC(c2ccncc2)CC1`, the AC50 was 7.14 µM. Regarding `CCCCCCn1c(=O)c(C(=O)Nc2ncccc2C)c(O)c2ccccc21`, the AC50 was 5.5 µM. The same measure for `N#CCSc1nc2ccccc2c2nc3ccccc3n12`: 10.3 µM. As to `CCCCCCc1cc2cc(C(=O)Nc3ccccc3)c(=O)oc2cc1O`, the half-maximal activity concentration (AC50) is 3.24 µM. `N/C(=N\OC(=O)c1cccc(Cn2cc(C(F)(F)F)ccc2=O)c1)c1ccccc1`: the AC50 was 7.71 µM. With `Cc1cc(-c2ccccc2)cc(C)[n+]1Cc1ccccc1` the figure was 0.667 µM; with `Oc1ccc(Br)cc1-c1cc(-c2ccc(Cl)cc2)n[nH]1`, 11.1 µM. As to `Cc1cccc2sc(NNC(=O)c3ccc(S(=O)(=O)N4CCCC(C)C4)cc3)nc12` (stereo not given), the concentration at half-maximal activity (AC50) was 6.74 µM.
